Assay results reported in patent EP2535049A1 (Proyecto de Biomedicina Cima, S.L., priority 2011, dated 2012).
Entries after “also recorded” stand apart in the source; their conditions may differ.

Assays:
GluR2/3 = assay: Western blot of GluR2/3 in hippocampus of J20 mice; type: in vivo; details: J20 mice treated for 10 weeks
Protocol: (§1) Results were compared with those obtained from age-matched negative littermates (controls). To test the effect of the PDE5 inhibitors in cognition capacity related to aging, a second treatment was carried out using 10-12 month-old non-transgenic (wild type) mice on an inbred C57/B6xSJL genetic background.
(§2) Twenty four hours after the fear conditioning test, animals (n=5, per group) were sacrificed and the brains removed for biochemical studies. The cortex and hippocampus were dissected, homogenized, and processed as described below for subsequent western blot analysis. […]
(§3) Total tissue homogenates were obtained by homogenizing the hippocampus in a cold lysis buffer with protease inhibitors (0.2 M NaCl, 0.1 M HEPES, 10% glycerol, 200 mM NaF, 2 mM Na4P2O7, 5 mM EDTA, 1 mM EGTA, 2 mM DTT, 0.5 mM PMSF, 1 mM Na3VO4, 1 mM benzamidine, 10 µg/ml leupeptin, 400 U/ml aprotinin), centrifuged at 14,000 x g 4 °C for 20 minutes and the supernatant was aliquoted and stored at -80 °C. Total protein concentrations were determined using the BioRad Bradford protein assay (BioRad Laboratories).
(§4) Protein samples were mixed with an equal volume of 2 x Laemmli sample buffer, resolved onto SDS-polyacrylamide gels and transferred to nitrocellulose membrane. […] Quantity OneTM software v.4.6.3 (Bio-Rad) was used for quantification.

AD mouse models = details: Puzzo et al., 2009; cited from earlier work
J20 mouse model of AD = assay: Morris water maze in J20 mouse model of AD; type: in vivo, mice; details: for escape latencies in the hidden platform phase: 4-week treatment, 15 mg/kg/day orally, 20 month old J20 mice, data not shown; for MWM performance, escape latencies in the invisible platform phase / percentage of time spent in the right quadrant (memory retention): 10 weeks of treatment; for MWM performance, escape latencies in the invisible platform phase: 15 mg/Kg orally once daily, 21-22 month-old J20 mice, vs saline; for percentage of time spent in the right quadrant (memory retention): platform removed, days 7 and 9, 15 mg/Kg, J20 mice, randomness = 25%
Protocol: Transgenic mice overexpressing human amyloid precursor protein (hAPP) with the Swedish (K670N/M671L) and Indiana (V717F) familial AD mutations under control of the PDGF β-chain promoter were used (J20 line) (Mucke et al, 2000). The mice were on an inbred C57BL/6J genetic background. […] Results were compared with those obtained from age-matched negative littermates (controls). To test the effect of the PDE5 inhibitors in cognition capacity related to aging, a second treatment was carried out using 10-12 month-old non-transgenic (wild type) mice on an inbred C57/B6xSJL genetic background. […] The MWM test was used to evaluate spatial memory as previously described (Hsiao et al., 1996; Reed et al., 2010; Ricobaraza et al., 2009). After treatments, groups of animals underwent spatial reference learning and memory testing in the MWM. The water maze was a circular pool (diameter 1.2 m) filled with water maintained at 20 °C and made opaque by the addition of non-toxic white paint. Mice were trained for three consecutive days (8 trials/day) swimming to a raised platform (visible-platform). No distal visible cues were present during this phase. The same platform location was used for all visible-platform sessions and was changed for the invisible-platform training (submerged 1 cm beneath the surface) conducted over […] (4 trials/day) with all visible distal cues present in this phase. In both visible- and hidden-platform versions, mice were placed pseudo-randomly in selected locations, facing toward the wall of the pool to eliminate the potentially confounding contribution of extramaze spatial cues. Each trial was terminated when the mouse reached the platform or after 60 seconds, whichever came first. To test the retention, three probe trials were performed at the beginning of 4th, 7th, and the last day of the test (day 9). In the probe trials the platform was removed from the pool, and the percentage of time spent in the quadrant where the platform was previously set was recorded. All trials were monitored by a camera above the center of the pool connected to a SMART-LD program (Panlab S.L., Barcelona, Spain) for subsequent analysis of escape latencies, swimming speed, path length and percent time spent in each quadrant of the pool during probe trials. All experimental procedures were performed blind to groups.

[1] = Kulkarni and Patil 2004; Forgue et al., 2006; cited from earlier work
pAkt = assay: Western blot of pAkt in hippocampus of J20 mice; type: in vivo; details: J20 mice treated for 10 weeks, vs saline
Protocol: as §1, §2, §3, §4

In the case of CN1CC(=O)N2[C@H](c3ccc4c(c3)OCO4)c3[nH]c4ccccc4c3C[C@@H]2C1=O [tadalafil, (6R-trans)-6-(1,3-benzodioxol-5-yl)-2,3,6,7,12,12a-hexahydro-2-methyl-pyrazino [1',2':1,6] pyrido [3,4-b]indole-1,4-dione], the “expression levels of GluR2/3” value (GluR2/3) is given as “recovered the low expression levels”, the “effect on memory in AD mouse models” value (AD mouse models) is given as “no effect was demonstrated” and the “escape latencies in the hidden platform phase” value (J20 mouse model of AD) is given as “no significant differences were detected”. For the same molecule, the “MWM performance, escape latencies in the invisible platform phase” value (J20 mouse model of AD; 15 mg/kg) was “even better than those of non-transgenic mice; also recorded: cognitive improvement was higher in the group of tadalafil than in the group of sildenafil; also recorded: markedly improves the performance”, the “percentage of time spent in the right quadrant (memory retention)” value (J20 mouse model of AD) was “higher than 25%” and the “half-life in blood serum” value [1] was 18 h. For the same molecule, the “level of pAkt” value (pAkt) was “reduction was reverted; also recorded: higher than that of sildenafil”.

For CCCc1nn(C)c2c(=O)[nH]c(-c3cc(S(=O)(=O)N4CCN(C)CC4)ccc3OCC)nc12 [sildenafil], the “expression levels of GluR2/3” value (GluR2/3) is given as “recovered the low expression levels”, the “effect on memory in AD mouse models” value (AD mouse models) is given as “efficacious drug in improving memory” and the “escape latencies in the hidden platform phase” value (J20 mouse model of AD) is given as “no significant differences were detected”. For the same molecule, the “MWM performance, escape latencies in the invisible platform phase” value (J20 mouse model of AD) was “markedly improves the performance”, the “percentage of time spent in the right quadrant (memory retention)” value (J20 mouse model of AD) was “higher than 25%” and the “half-life in blood serum” value [1] was 3.4 h. For the same molecule, the “level of pAkt” value (pAkt) was “reduction was reverted”.
